Assay in all cases: ≥ marks a high value that may be exact or a test limit, other limits are often not marked, values filed in µg/mL are converted to µM
Test [1] concerns Escherichia coli 55B5.
Test [2] relates to Escherichia coli UB1005.
The subject of test [3] is Pseudomonas aeruginosa.
Test [4] concerns Salmonella typhimurium.
Test [5] concerns Staphylococcus aureus.
Test [6] concerns Acholeplasma laidlawii A-EF22.
In test [7] the test system is Mycoplasma mycoides ssp. mycoides SC KH3J.
In test [8] the test system is Spiroplasma citri R8A2.
In test [9] the test system is Spiroplasma floricola BNR 1.
The subject of test [10] is Spiroplasma melliferum BC3.
The test system of test [11] is Candida albicans ATCC 3007.
Test [12] deals with Escherichia coli ATCC 25629.
Test [13] has as its system Escherichia coli.
Test [14] has as its system Shigella dysenteriae ATCC 2932.
The subject of test [15] is Shigella dysenteriae.
Test [16] relates to Staphylococcus aureus ATCC 2576.
The test system of test [17] is Aspergillus flavus.
In test [18] the test system is Bacillus megaterium.
Test [19] relates to Candida albicans ATCC 90028.
Test [20] has as its system Candida parapsilosis ATCC 22019.
The test system of test [21] is Enterococcus faecalis ATCC 29212.
Test [22] relates to Escherichia coli ATCC 25922.
For test [23], the system named is Escherichia coli ATCC 35218.
The subject of test [24] is Pseudomonas aeruginosa ATCC 27853.
Test [25] concerns Saccharomyces cerevisiae.
Test [26] deals with Staphylococcus aureus ATCC 25923.

≈ marks a conversion by molar mass, not a printed value.

As a reminder, the MIC is the lowest concentration found to suppress growth. High values mean a need for much substance, low ones inhibition by little substance. `CC[C@H](C)[C@H](NC(=O)[C@H](C)N)C(=O)N[C@@H](Cc1cnc[nH]1)C(=O)N[C@@H](CCCCN)C(=O)N[C@@H](CC(C)C)C(=O)N[C@@H](C)C(=O)N[C@@H](Cc1cnc[nH]1)C(=O)N[C@@H](CCCCN)C(=O)N[C@@H](CC(C)C)C(=O)N[C@@H](CC(C)C)C(=O)N[C@@H](CCCCN)C(=O)N[C@@H](CCCCN)C(=O)N[C@H](C(=O)N[C@@H](CC(C)C)C(=O)N[C@@H](CCCN=C(N)N)C(=O)N[C@@H](C)C(=O)N[C@H](C(=O)N[C@@H](CCCCN)C(=O)N[C@@H](CCCCN)C(=O)N[C@@H](CC(C)C)C(=O)N[C@@H](C)C(=O)N[C@@H](CC(N)=O)C(=O)O)C(C)C)[C@@H](C)O` [AIHKLAHKLLKKTLRAVKKLAN]: the MIC in [1] amounted to 5.2 µM (≈ 13 µg/mL); in test [2] it was 5.5 µM (≈ 13.7 µg/mL); in [3], 10.5 µM (≈ 26.2 µg/mL); in test [4], 8.5 µM (≈ 21.2 µg/mL); in test [5], 30 µM (≈ 74.9 µg/mL).
Take `CC(C)C[C@H](NC(=O)[C@H](CC(C)C)NC(=O)[C@H](CCCCN)NC(=O)[C@H](CC(C)C)NC(=O)[C@H](CC(C)C)NC(=O)[C@H](CC(C)C)NC(=O)[C@H](CCCCN)NC(=O)[C@H](CC(C)C)NC(=O)[C@H](CC(C)C)NC(=O)[C@H](CC(C)C)NC(=O)[C@H](CCCCN)NC(=O)[C@H](CC(C)C)NC(=O)[C@H](CC(C)C)NC(=O)[C@@H](N)CCCCN)C(=O)N[C@@H](CCCCN)C(=O)O` [KLLKLLLKLLLKLLK]: the MIC stood at 1.56 µM (≈ 2.79 µg/mL) in test [6]; 6.25 µM (≈ 11.2 µg/mL) in [7]; 6.25 µM (≈ 11.2 µg/mL) in [8]; 6.25 µM (≈ 11.2 µg/mL) in test [9]; 6.25 µM (≈ 11.2 µg/mL) in test [10].
In the case of `CC[C@H](C)[C@H](NC(=O)CN)C(=O)N[C@@H](CC(C)C)C(=O)N[C@@H](CCCCN)C(=O)N[C@@H](CCCCN)C(=O)N[C@@H](Cc1ccccc1)C(=O)N[C@@H](CCSC)C(=O)N[C@@H](CC(C)C)C(=O)N[C@@H](Cc1cnc[nH]1)C(=O)N[C@@H](CCCN=C(N)N)C(=O)NCC(=O)N[C@H](C(=O)N[C@@H](CCCCN)C(=O)N[C@H](C(=O)N[C@@H](Cc1ccc(O)cc1)C(=O)N[C@@H](CCCCN)C(=O)N[C@@H](CCSC)C(=O)N[C@@H](CCCN=C(N)N)C(=O)N[C@H](C(=O)N[C@@H](CC(C)C)C(=O)N[C@@H](CO)C(=O)N[C@@H](CCCCN)C(=O)N[C@@H](CCCN=C(N)N)C(=O)N[C@@H](CO)C(=O)N[C@@H](Cc1cnc[nH]1)C(=O)O)[C@@H](C)O)C(C)C)[C@@H](C)O` [GILKKFMLHRGTKVYKMRTLSKRSH], the MIC was 2.49 µM (≈ 7.5 µg/mL) in test [11]; 1.66 µM (≈ 5 µg/mL) in test [12]; 1.66 µM (≈ 5 µg/mL) in test [13]; 0.829 µM (≈ 2.5 µg/mL) in test [14]; 1.66 µM (≈ 5 µg/mL) in [15]; 0.166 µM (≈ 0.5 µg/mL) in [16]. The compound further yielded an MIC in [5] of 0.332 µM (≈ 1 µg/mL).
With `CC[C@H](C)[C@H](NC(=O)[C@@H]1CCCN1C(=O)[C@H](CC(C)C)NC(=O)[C@@H](N)Cc1ccccc1)C(=O)N[C@H](C(=O)N[C@H](C(=O)N[C@@H](CC(N)=O)C(=O)N[C@@H](CC(C)C)C(=O)N[C@@H](CC(C)C)C(=O)N[C@@H](CO)C(=O)NCC(=O)N[C@@H](CC(C)C)C(=O)N[C@@H](CC(C)C)C(=O)O)[C@@H](C)O)C(C)C` [FLPIVTNLLSGLL], the MIC in [17] was at least 58 µM; in test [18], at least 46 µM; in test [19], at least 116 µM; in test [20], at least 116 µM; in test [21] it was above 116 µM; in test [22], 231 µM (≈ 323 µg/mL). For the same compound, the MIC in [23] was at least 116 µM; in test [24] it was above 231 µM; in [25], at least 116 µM; in [26], 58 µM (≈ 81.2 µg/mL).

These data come from DBAASP.
